The numbers were not newly measured in patent US6444811B1, “Pyrazinones, compositions containing such compounds and methods of use” (Merck Frosst Canada & Co., priority 1999, dated 2002), which cites them from elsewhere.

Bounds are passed on as bounds.

In one data set the target is T1, caspase-3 (Homo sapiens, UniProt P42574).
T1 sequence (P42574 29-175 limits assumed): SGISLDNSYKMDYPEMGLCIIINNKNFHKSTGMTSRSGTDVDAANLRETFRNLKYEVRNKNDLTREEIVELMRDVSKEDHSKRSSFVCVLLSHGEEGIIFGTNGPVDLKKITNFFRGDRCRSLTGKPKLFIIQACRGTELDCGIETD
T1 sequence (P42574 176-277 limits assumed): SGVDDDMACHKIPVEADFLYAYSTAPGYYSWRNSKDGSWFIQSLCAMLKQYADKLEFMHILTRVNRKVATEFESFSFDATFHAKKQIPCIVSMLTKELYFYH

The target of the next data set is T2, caspase-1 (Homo sapiens, UniProt P29466).
T2 sequence (P29466 120-297 limits assumed): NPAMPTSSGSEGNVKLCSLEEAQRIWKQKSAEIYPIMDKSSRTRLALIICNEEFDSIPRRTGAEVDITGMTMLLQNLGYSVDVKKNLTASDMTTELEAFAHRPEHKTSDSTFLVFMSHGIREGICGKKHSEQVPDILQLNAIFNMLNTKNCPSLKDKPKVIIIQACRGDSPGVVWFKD
T2 sequence (P29466 317-404 limits assumed): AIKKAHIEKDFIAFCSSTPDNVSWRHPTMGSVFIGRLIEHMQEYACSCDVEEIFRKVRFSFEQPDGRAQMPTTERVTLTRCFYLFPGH

As to Ac-YVAD-CHO, the values for the Ki on caspase-3 and on caspase-1 were 12 µM and less than 0.001 µM, respectively. Also, the “kon caspase-1” value on caspase-1 (slow-binding time-dependent inhibition) was 380000 M⁻¹ s⁻¹.
